# Measured values reported in patent US20030036524A1, “Method of sensitising endothelial cells to prodrugs” (priority 2000, published 2003).
# Tested on: HUVEC cells
# Assay: Functional bio-assay: endothelial cell proliferation of Ad5C2B1-infected HUVEC cells treated with ifosfamide, crystal-violet cell number
# Format: cell-based, human
# Details: day 8
# Description: To test the bioactivity of the CYP2B1 transgene, human umbilical vein […] (HUVEC) cells [Jaffe et al.; J. Clin. Invest.
# HUVEC cells were infected with Ad5C2B1 on day 2 with concentrations ranging from 0 to 2×10^8 PFU/ml for 2 hours.
# The cells were seeded at 40.000 cells/well at day 3 (some wells were not sub-cultured but saved for cell extracts and medium collection at day 4).
# HUVEC cells were grown on gelatin-coated tissue culture dishes in medium 199 (Biowhitakker), supplemented with 10% (vol/vol) human serum, 10% (v/v) heat-inactivated newborn calf serum (Biowhitakker), 5 U/mL of heparin (Leo Pharma BV), […] of crude EC growth factor (TNO-PG, Leiden), 100 U/mL of penicillin, and […] of streptomycin (Biowhitakker). Cells were grown at 37° C. in a humid atmosphere with 5% (vol/vol) CO2.
# Cell numbers were determined at day 8 using crystal-violet staining and optical density measurement.
# To quantify the effect off viral infection and prodrug treatment the cells numbers were determined as described above.
smiles,measurement,setting,value
"O=P1(NCCCl)OCCCN1CCCl (stereo not drawn) [Ifosfamide, ifosfamide]",Number of Cells,"Virus 0 PFU/ml, Ifosfamide 0.0625 mM",152000
same,Number of Cells,"Virus 0 PFU/ml, Ifosfamide 0.125 mM",151600
same,Number of Cells,"Virus 0 PFU/ml, Ifosfamide 0.25 mM",152500
same,Number of Cells,"Virus 0 PFU/ml, Ifosfamide 0.50 mM",116000
same,Number of Cells,"Virus 1 × 10^8 PFU/ml, Ifosfamide 0.0625 mM",80500
same,Number of Cells,"Virus 1 × 10^8 PFU/ml, Ifosfamide 0.125 mM",63600
same,Number of Cells,"Virus 1 × 10^8 PFU/ml, Ifosfamide 0.25 mM",66000
same,Number of Cells,"Virus 1 × 10^8 PFU/ml, Ifosfamide 0.50 mM",38500
same,Number of Cells,"Virus 1.25 × 10^7 PFU/ml, Ifosfamide 0.0625 mM",98000
same,Number of Cells,"Virus 1.25 × 10^7 PFU/ml, Ifosfamide 0.125 mM",110000
same,Number of Cells,"Virus 1.25 × 10^7 PFU/ml, Ifosfamide 0.25 mM",102000
same,Number of Cells,"Virus 1.25 × 10^7 PFU/ml, Ifosfamide 0.50 mM",85000
same,Number of Cells,"Virus 2 × 10^8 PFU/ml, Ifosfamide 0.0625 mM",60000
same,Number of Cells,"Virus 2 × 10^8 PFU/ml, Ifosfamide 0.125 mM",54000
same,Number of Cells,"Virus 2 × 10^8 PFU/ml, Ifosfamide 0.25 mM",53000
same,Number of Cells,"Virus 2 × 10^8 PFU/ml, Ifosfamide 0.50 mM",30000
same,Number of Cells,"Virus 2.5 × 10^7 PFU/ml, Ifosfamide 0.0625 mM",88000
same,Number of Cells,"Virus 2.5 × 10^7 PFU/ml, Ifosfamide 0.125 mM",85000
same,Number of Cells,"Virus 2.5 × 10^7 PFU/ml, Ifosfamide 0.25 mM",79200
same,Number of Cells,"Virus 2.5 × 10^7 PFU/ml, Ifosfamide 0.50 mM",56000
same,Number of Cells,"Virus 5 × 10^7 PFU/ml, Ifosfamide 0.0625 mM",87000
same,Number of Cells,"Virus 5 × 10^7 PFU/ml, Ifosfamide 0.125 mM",85000
same,Number of Cells,"Virus 5 × 10^7 PFU/ml, Ifosfamide 0.25 mM",75000
same,Number of Cells,"Virus 5 × 10^7 PFU/ml, Ifosfamide 0.50 mM",55000
